The source made the active and inactive calls.
Columns and labels:
SUMO E1/E2 = SUMO E1/E2 (Homo sapiens, UniProt P63279+Q9UBE0+Q9UBT2); test: SAR analysis of SUMOylation using HTRF in an in-Vitro dose response assay. [Related pubchem assays (depositor defined):AID2006, AID2011, AID2018, AID2069, AID2658]; type: functional
Streptokinase A = target: T1, Streptokinase A (Streptococcus pyogenes serotype M1, UniProt P10520); test: viability-normalized secreted streptokinase activity reduction – plasminogen activation absorbance, OD405, dose response (AID 1914); type: functional, Streptococcus pyogenes M1 GAS;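 also: secreted streptokinase activity via plasminogen activation per viability signal from cell pellet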
T1 sequence (P10520 whole entry): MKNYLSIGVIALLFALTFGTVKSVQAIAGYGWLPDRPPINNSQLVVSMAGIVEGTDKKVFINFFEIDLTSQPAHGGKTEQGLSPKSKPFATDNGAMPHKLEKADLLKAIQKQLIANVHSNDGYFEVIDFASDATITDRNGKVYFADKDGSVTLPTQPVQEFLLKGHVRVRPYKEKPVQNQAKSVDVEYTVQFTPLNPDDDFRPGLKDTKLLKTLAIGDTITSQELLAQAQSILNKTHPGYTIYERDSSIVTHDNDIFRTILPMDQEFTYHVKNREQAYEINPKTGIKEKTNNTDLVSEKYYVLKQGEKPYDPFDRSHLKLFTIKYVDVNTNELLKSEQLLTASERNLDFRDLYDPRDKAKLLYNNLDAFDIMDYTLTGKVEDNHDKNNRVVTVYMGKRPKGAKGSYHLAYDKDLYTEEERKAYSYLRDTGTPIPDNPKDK

[1] = target: T2, Replicative DNA helicase DnaB (Mycobacterium tuberculosis, UniProt P9WMR3); test: DnaB intein splicing inhibitors, dose response, biochemical, cell-free fluorescence (AID 449749); type: functional
T2 sequence (P9WMR3 whole entry): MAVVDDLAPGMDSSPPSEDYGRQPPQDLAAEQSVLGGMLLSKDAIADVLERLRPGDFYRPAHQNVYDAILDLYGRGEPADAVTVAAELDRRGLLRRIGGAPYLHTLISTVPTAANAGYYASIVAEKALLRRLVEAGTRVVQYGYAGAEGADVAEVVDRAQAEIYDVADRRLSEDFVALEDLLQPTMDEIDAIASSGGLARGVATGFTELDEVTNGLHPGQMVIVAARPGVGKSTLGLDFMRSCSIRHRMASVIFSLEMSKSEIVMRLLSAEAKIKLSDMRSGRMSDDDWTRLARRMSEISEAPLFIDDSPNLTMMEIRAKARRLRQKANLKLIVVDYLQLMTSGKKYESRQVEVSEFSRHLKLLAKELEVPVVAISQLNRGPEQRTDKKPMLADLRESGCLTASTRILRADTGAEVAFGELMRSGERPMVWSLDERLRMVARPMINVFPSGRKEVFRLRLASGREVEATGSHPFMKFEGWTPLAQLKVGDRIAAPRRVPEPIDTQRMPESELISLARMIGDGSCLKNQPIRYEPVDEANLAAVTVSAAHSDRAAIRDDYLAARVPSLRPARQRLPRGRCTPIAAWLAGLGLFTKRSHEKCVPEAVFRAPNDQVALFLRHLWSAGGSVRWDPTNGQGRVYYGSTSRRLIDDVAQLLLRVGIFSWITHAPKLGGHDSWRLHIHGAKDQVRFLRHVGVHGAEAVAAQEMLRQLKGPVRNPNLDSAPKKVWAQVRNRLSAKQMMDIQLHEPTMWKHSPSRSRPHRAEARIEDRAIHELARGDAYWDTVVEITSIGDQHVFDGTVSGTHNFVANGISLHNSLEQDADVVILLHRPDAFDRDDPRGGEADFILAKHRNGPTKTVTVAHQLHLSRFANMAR

SUMO-activating enzyme [2] = target: T3, SUMO-activating enzyme (Homo sapiens, UniProt Q9UBT2); test: blockers of SAE1/SAE2–UBC9 SUMO transfer – biochemical, HTRF, uHTS, primary screen (AID 2006); type: protein-complex assay
X-box-binding protein 1 = target: T4, X-box-binding protein 1 (Homo sapiens, UniProt P17861); type: functional, Cricetulus griseus;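 also: confirmatory dose-response counter-screen serving a CHOP assay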
T4 sequence (P17861 whole entry): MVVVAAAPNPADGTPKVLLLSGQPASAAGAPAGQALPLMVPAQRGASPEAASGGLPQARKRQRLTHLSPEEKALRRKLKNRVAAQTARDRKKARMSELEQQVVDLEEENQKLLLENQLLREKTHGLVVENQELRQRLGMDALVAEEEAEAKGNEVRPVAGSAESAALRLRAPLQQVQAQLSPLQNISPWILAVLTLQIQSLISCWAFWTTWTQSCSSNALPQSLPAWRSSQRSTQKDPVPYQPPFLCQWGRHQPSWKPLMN

SUMO-activating enzyme [3] = target: T3, SUMO-activating enzyme; test: blockers of UBC9-mediated SUMO conjugation – biochemical, AlphaScreen, SUMOylation inhibitor project, confirmation (AID 2018); type: functional
[4] = target: T5, Tyrosyl-DNA phosphodiesterase 2 (Homo sapiens, UniProt O95551); test: potency against TDP2 phosphodiesterase activity – biochemical, epi absorbance, IC50, dose response (AID 743297)
T5 sequence (O95551 whole entry): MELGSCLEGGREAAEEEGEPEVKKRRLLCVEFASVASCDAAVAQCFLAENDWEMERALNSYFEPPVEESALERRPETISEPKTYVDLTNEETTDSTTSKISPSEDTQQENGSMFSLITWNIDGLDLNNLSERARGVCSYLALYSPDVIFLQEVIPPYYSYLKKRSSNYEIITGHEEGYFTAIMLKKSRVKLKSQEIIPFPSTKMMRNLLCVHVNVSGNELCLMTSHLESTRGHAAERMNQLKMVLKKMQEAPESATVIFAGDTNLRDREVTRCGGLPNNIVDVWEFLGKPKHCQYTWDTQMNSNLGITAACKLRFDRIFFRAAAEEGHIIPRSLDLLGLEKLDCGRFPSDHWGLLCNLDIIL

[5] = target: T6, Long-chain-fatty-acid--AMP ligase FadD28 (Mycobacterium tuberculosis, UniProt P9WQ59); test: Fluorescence polarization aasay to screen for inhibitors that compete for the binding of FadD28 to a bisubstrate Measured in Biochemical System Using Plate Reader - 2147-01_Inhibitor_Dose_CherryPick_Activity.; type: functional, Mycobacterium tuberculosis H37Rv
T6 sequence (P9WQ59 whole entry): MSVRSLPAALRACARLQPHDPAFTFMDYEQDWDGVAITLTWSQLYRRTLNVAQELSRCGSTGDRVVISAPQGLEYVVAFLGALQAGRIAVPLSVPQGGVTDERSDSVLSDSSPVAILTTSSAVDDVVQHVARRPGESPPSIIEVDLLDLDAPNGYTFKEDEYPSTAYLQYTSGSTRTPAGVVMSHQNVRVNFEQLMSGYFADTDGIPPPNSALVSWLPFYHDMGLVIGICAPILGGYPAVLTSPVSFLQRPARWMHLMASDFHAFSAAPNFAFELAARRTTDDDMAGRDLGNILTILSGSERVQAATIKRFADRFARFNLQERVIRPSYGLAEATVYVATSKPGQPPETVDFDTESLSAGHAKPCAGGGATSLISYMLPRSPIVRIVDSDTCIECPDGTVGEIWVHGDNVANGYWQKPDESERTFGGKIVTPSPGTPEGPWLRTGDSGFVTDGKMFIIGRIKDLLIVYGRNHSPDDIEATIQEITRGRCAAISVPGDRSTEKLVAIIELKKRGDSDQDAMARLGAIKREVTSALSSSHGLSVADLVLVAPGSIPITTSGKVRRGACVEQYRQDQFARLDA

T3 sequence (Q9UBE0 whole entry): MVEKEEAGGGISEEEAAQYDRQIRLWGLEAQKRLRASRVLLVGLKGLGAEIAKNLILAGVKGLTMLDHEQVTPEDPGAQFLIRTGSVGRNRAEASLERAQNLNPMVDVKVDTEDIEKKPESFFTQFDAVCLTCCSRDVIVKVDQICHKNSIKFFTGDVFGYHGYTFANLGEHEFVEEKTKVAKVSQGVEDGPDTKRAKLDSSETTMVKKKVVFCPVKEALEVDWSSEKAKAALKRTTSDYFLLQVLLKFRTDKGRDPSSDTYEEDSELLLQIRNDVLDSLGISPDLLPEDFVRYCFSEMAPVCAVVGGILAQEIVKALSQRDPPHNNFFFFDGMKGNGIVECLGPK
T3 sequence (Q9UBT2 whole entry): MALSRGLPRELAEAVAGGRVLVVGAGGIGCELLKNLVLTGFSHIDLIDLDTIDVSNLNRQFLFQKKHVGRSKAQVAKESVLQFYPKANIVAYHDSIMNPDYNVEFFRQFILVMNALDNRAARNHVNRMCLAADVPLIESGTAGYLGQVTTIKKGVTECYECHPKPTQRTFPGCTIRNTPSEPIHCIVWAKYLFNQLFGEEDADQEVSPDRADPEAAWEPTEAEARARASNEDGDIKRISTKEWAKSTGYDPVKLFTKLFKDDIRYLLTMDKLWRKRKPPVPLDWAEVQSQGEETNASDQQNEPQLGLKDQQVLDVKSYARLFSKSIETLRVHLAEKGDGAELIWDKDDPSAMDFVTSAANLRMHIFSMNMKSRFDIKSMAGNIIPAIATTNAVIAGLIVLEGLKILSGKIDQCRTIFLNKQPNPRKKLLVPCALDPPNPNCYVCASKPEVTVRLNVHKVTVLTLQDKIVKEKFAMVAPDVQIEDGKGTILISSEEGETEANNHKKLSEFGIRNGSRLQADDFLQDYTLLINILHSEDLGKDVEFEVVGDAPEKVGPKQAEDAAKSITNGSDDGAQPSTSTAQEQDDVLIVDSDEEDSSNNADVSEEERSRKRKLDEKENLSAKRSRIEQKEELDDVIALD
Sequence of SUMO E1/E2 (Q9UBE0 whole entry): as the sequence (Q9UBE0 whole entry) above
Sequence of SUMO E1/E2 (Q9UBT2 whole entry): as the sequence (Q9UBT2 whole entry) above
Sequence of SUMO E1/E2 (P63279 whole entry): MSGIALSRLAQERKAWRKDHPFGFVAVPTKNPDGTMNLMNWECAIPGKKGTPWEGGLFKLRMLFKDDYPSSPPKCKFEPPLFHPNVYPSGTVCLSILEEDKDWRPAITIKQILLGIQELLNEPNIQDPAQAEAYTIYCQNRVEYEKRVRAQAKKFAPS

Compound: CCCCn1c(NS(=O)(=O)c2ccccc2)c(S(=O)(=O)c2ccc(C)cc2)c2nc3ccccc3nc21
- IC50 (SUMO E1/E2): 4.2 µM (active)
- EC50 (Streptokinase A): 18.2 µM (active)
- AC50 [1]: > 380 µM (inactive)
- IC50 (SUMO-activating enzyme [2]): 1.83 µM (active)
- Absolute IC50 (XBP1) (X-box-binding protein 1): 10 µM
- IC50 (SUMO-activating enzyme [3]): 0.68 µM (active)
- IC50 [4]: 7.83 µM (active)
- AC50 [5]: 46.5 µM (active)

— ChEMBL document CHEMBL1201862, “PubChem BioAssay data set” (2004)
